In patent US10874637B2, “Methods and pharmaceutical compositions for the treatment of neurodegeneration with brain iron accumulation” (INSERM (Institut National de la Santé et de la Recherche …, priority 2016, dated 2020):
Entries after “also recorded” stand apart in the source; their conditions may differ.

Columns and labels:
liver and ovarian cancer = settings: via induction of TfR1 palmitoylation and reduction of its cell-surface levels; cited from earlier work
TfR1 = TfR1 palmitoylation assay in cultured skin fibroblasts (fatty acyl exchange chemistry); format: cell-based, human; settings: control and NBIA fibroblasts, 25 μM artesunate for 48 h
Procedure: Skin fibroblasts were isolated from patients 1-2 and from four NBIA patients carrying biallelic PANK2, PLA2G6, C19ORF12 and FA2H mutations (Supplementary Table 2). Fibroblasts were grown in DMEM (Life technologies) medium supplemented with 10% fetal beef serum (FBS), 2 mM L-glutamine, 2.5 mM pyruvate, 100 μg/ml streptomycin, 100 U/ml penicillin at 37° C. For treatment with ferric ammonium citrate (FAC), 90% confluent cells were incubated for 72 h with or without 100 μM FAC in serum-free DMEM (i.e. Tf free). HeLa cells were grown in the same medium. TfR1 palmitoylation in cultured skin fibroblasts was modified from^15. Briefly, cells were lysed on ice in a DTT-free cell lysis buffer and endogenous TfR1 was immunoprecipitated with mouse anti-TfR1 antibody (Zymed) with protein G magnetic beads (Biorad). After washing with PBS, beads were incubated overnight with 50 mM N-ethylmaleimide (NEM) at 4° C., washed 3 times with PBS and then incubated with 1 M hydroxylamine (HA) at room temperature for 2 hours. After three washes, the beads were incubated with 50 mM HPDP-Biotin (Thermo) in dark for 2 hours. Biotin-labeled TfR1 level was determined by immunoblotting in non-reducing conditions using a goat anti-biotin antibody (Thermo) while immunoblotting with rabbit anti-TfR1 antibody (Abcam) was used as loading control.

ferritin (FTH) = test: Western blot of ferritin (FTH) steady state levels in fibroblasts; format: cell-based, human; settings: control and NBIA fibroblasts, artesunate treatment (25 μM, 48 h)
Procedure: Skin fibroblasts were isolated from patients 1-2 and from four NBIA patients carrying biallelic PANK2, PLA2G6, C19ORF12 and FA2H mutations (Supplementary Table 2). Fibroblasts were grown in DMEM (Life technologies) medium supplemented with 10% fetal beef serum (FBS), 2 mM L-glutamine, 2.5 mM pyruvate, 100 μg/ml streptomycin, 100 U/ml penicillin at 37° C. For treatment with ferric ammonium citrate (FAC), 90% confluent cells were incubated for 72 h with or without 100 μM FAC in serum-free DMEM (i.e. Tf free). HeLa cells were grown in the same medium. Cultured skin fibroblasts or HeLa cells were harvested on ice by scraping in reducing or non-reducing cell lysis buffer. SDS-PAGE was performed on whole-cell protein extracts. Immunodetections were performed in PBS with 5% milk, 0.05 Tween20 (SIGMA) using the following antibodies: rabbit anti-CRAT (HPA022815, Sigma), rabbit anti-ACOT8 (SAB4500009 SIGMA), mouse anti-REPS1 (ab69221), mouse anti-SOD1 (ab86454), mouse anti-TfR1 (Zymed 136890), rabbit anti-ferritin (ab75973), rabbit anti-IRP1 (ab126595), rabbit anti-IRP2 (ab80339), mouse anti-GRIM19 (ab110240), rabbit anti-catalase (ab16731), rabbit anti-FBXLS (ab140175), rabbit anti-LC3B (ab51520) and mouse anti-actin antibodies (ab8226). […]

iron amount = settings: treatment increasing TfR1 palmitoylation; cited from earlier work

Row | Compound | liver and ovarian cancer growth (liver and ovarian cancer) | TfR1 palmitoylation (TfR1) | ferritin (FTH) steady state levels (indicator of iron content) (ferritin (FTH)) | iron amount (iron amount)
1 | C[C@H]1[C@H](OC(=O)CCC(=O)O)O[C@@H]2O[C@@]3(C)CC[C@H]4[C@H](C)CC[C@@H]1[C@@]24OO3 [artesunate, (3R,5aS,6R,8aS,9R,10S,12R,12aR)-Decahydro-3,6,9-trimethyl-3,12-epoxy-12H-pyrano [4,3-j]-1,2-benzodioxepin-10-ol, hydrogen succinate] | inhibit liver and ovarian cancer growth | enhanced TfR1 palmitoylation; also recorded: improved TfR1 palmitoylation | decreased ferritin steady state level | –
2 | dihydroartesunate | – | – | – | reduces iron amount
